This passage reports IC50 results from US10479795B2 (Incyte Corporation, priority 2016, dated 2019).

Usually IC50 stands for the concentration that inhibits the measured activity by half.

The target in test [1] is PI3Kγ (p110γ) Recombinant Human Protein (Homo sapiens (Human), UniProt P48736). The test can be described thus: PI3K-γ Scintillation Proximity Assay. Type of test: biochemical. Conditions: read-out: PI3Kγ IC50. As to the method: [γ-^33P]ATP (10 mCi/mL) and Wheat Germ Agglutinin (WGA) YSi SPA Scintillation Beads was purchased from Perkin-Elmer (Waltham, Mass.). […] PI3Kγ (p110γ) Recombinant Human Protein was purchased from Life technology (Grand Island, N.Y.). ATP, MgCl2, DTT, EDTA, MOPS and CHAPS were purchased from Sigma-Aldrich (St. Louis, Mo.).
Chain of PI3Kγ (p110γ) Recombinant Human Protein (P48736 whole entry): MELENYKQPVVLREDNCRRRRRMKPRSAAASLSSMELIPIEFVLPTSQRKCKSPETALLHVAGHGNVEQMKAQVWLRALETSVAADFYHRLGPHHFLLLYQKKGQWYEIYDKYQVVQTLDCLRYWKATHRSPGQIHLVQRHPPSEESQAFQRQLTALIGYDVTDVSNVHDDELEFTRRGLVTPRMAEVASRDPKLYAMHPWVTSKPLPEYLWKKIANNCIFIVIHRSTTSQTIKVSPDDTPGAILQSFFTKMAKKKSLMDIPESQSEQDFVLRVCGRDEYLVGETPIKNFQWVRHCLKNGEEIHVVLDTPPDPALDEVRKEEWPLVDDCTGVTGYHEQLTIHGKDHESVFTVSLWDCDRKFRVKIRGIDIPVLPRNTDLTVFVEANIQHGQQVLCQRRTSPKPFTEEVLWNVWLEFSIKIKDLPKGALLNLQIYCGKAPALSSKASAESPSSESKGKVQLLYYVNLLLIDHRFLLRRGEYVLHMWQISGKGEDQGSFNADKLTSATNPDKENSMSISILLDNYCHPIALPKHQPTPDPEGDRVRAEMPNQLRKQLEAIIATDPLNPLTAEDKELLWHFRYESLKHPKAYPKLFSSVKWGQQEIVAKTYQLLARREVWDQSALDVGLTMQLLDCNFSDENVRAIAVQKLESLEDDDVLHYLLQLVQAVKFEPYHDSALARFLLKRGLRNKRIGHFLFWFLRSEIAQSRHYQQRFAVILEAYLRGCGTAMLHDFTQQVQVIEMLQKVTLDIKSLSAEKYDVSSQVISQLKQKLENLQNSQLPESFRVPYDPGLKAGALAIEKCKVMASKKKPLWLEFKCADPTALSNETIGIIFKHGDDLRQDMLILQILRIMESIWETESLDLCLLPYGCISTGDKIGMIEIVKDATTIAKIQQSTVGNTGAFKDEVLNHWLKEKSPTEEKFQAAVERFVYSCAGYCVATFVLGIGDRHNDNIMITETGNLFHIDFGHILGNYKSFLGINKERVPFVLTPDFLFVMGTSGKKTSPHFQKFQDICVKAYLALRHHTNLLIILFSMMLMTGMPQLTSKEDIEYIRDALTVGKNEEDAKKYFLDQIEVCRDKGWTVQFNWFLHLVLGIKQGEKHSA
The kinase reaction was conducted in polystyrene 384-well Greiner Bio-one white plate from Thermo Fisher Scientific in a final volume of 25 μL. Inhibitors were first diluted serially in DMSO and added to the plate wells before the addition of other reaction components. The final concentration of DMSO in the assay was 2%. The PI3Kγ assay was carried out at room temperature in 20 mM MOPS, pH 6.7, 10 mM MgCl2, 5 mM DTT and CHAPS 0.03%. Reactions were initiated by the addition of ATP, the final reaction mixture consisted of 20 μM PIP2, 2 μM ATP, 0.5 μCi [γ-^33P] […] The final concentration of SPA beads is 1.0 mg/mL. After the plate sealing, plates were shaken overnight at room temperature and centrifuged at 1500 rpm for 10 min, the radioactivity of the product was determined by scintillation counting on Topcount (Perkin-Elmer). IC50 determination was performed by fitting the curve of percent of the solvent control activity versus the log of the inhibitor concentration using the GraphPad Prism 6.0 software.

Test [2] addresses PI3Kδ (p110δ/p85α) Recombinant Human Protein (Homo sapiens (Human), UniProt O00329). Briefly: PI3Kδ Scintillation Proximity Assay. It is filed as biochemical. From the text: Example C. PI3Kδ Scintillation Proximity Assay
[γ-^33P]ATP (10 mCi/mL) and Wheat Germ Agglutinin (WGA) YSi SPA Scintillation Beads was purchased from Perkin-Elmer (Waltham, Mass.). Lipid kinase substrate, D-myo-Phosphatidylinositol 4,5-bisphosphate (PtdIns(4,5)P2)D (+)-sn-1,2-di-O-octanoylglyceryl, 3-O-phospho linked (PIP2), CAS 204858-53-7, was purchased from Echelon Biosciences (Salt Lake City, Utah). PI3Kδ (p110δ/p85α) Recombinant Human Protein was purchased from Eurofins (St Charles, Mo.). ATP, MgCl2, DTT, EDTA, MOPS and CHAPS were purchased from Sigma-Aldrich (St. Louis, Mo.).
The kinase reaction was conducted in polystyrene 384-well Greiner Bio-one white plate from Thermo Fisher Scientific in a final volume of 25 μL. Inhibitors were first diluted serially in DMSO and added to the plate wells before the addition of other reaction components. The final concentration of DMSO in the assay was 2%. The PI3Kδ assay was carried out at room temperature in 20 mM MOPS, pH 6.7, 10 mM MgCl2, 5 mM DTT and CHAPS 0.03%. Reactions were initiated by the addition of ATP, the final reaction mixture consisted of 20 μM PIP2, 2 μM ATP, 0.5 μCi [γ-^33P] ATP, 3.4 nM PI3Kδ. Reactions were incubated for 120 min and terminated by the addition of 40 μL SPA beads suspended in quench buffer: 163 mM potassium phosphate pH 7.8, 20% glycerol, 25 mM EDTA. The final concentration of SPA beads is 1.0 mg/mL. After the plate sealing, plates were shaken overnight at room temperature and centrifuged at 1500 rpm for 10 min, the radioactivity of the product was determined by scintillation counting on Topcount (Perkin-Elmer). IC50 determination was performed by fitting the curve of percent of the solvent control activity versus the log of the inhibitor concentration using the GraphPad Prism 6.0 software.

The structures appear in SMILES notation. Where a name gives a salt, the structure may show the parent alone.

Chain of PI3Kδ (p110δ/p85α) Recombinant Human Protein (O00329 whole entry): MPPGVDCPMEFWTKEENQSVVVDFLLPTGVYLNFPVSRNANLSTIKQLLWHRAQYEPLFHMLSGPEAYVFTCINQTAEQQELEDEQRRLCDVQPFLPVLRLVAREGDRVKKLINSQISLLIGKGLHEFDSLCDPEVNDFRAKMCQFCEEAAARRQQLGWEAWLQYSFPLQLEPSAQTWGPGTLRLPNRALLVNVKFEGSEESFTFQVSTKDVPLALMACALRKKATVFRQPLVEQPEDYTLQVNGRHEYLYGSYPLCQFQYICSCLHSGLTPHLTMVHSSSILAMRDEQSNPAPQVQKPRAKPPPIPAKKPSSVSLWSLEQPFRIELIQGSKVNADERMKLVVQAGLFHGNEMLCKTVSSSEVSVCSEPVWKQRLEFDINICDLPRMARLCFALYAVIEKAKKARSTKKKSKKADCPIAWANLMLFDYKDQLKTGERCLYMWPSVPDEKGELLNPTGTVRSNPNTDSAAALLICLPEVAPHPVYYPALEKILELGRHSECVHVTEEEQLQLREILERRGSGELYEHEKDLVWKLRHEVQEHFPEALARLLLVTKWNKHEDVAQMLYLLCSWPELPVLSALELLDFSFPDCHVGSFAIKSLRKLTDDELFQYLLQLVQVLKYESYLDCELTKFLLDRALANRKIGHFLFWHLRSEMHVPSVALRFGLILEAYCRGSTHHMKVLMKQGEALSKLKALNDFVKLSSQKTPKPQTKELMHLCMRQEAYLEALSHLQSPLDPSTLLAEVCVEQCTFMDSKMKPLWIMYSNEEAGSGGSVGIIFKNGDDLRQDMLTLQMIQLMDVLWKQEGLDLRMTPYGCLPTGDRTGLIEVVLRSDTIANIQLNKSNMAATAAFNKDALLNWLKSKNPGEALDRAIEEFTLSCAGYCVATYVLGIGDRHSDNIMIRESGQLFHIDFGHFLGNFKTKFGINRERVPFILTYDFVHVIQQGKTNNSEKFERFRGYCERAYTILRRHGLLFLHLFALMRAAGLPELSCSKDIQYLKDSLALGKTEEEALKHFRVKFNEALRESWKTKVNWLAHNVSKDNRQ
Chain of PI3Kδ (p110δ/p85α) Recombinant Human Protein (P27986 whole entry partner): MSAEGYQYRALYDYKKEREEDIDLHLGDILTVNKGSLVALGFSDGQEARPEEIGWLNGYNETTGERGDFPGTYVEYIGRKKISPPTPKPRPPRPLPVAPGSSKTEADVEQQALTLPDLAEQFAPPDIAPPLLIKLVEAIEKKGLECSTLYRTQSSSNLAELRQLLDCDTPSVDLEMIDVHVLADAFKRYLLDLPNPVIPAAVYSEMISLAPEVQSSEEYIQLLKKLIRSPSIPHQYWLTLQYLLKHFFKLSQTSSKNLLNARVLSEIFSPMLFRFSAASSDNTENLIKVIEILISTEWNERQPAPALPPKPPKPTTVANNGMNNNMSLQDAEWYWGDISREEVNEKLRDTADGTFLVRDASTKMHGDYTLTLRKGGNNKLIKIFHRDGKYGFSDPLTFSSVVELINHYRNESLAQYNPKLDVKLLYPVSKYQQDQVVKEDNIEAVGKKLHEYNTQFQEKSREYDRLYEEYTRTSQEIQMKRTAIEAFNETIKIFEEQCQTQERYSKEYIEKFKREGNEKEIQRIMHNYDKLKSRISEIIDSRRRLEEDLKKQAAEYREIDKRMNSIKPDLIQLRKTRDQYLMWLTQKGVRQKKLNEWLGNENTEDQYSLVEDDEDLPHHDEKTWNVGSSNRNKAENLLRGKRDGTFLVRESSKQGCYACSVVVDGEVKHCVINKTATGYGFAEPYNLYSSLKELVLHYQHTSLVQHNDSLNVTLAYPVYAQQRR

As for `Cc1ccc(S(=O)(=O)N2C3CCC2CC(N2CCOCC2)C3)cc1-c1cnc2c(N)ncnn12` (centres unmarked) [Example 169, 7-(2-methyl-5-((3-morpholino-8-azabicyclo[3.2.1]octan-8-yl)sulfonyl)phenyl)imidazo[2,1-f][1,2,4]triazin-4-amine], the IC50 in test [1] is 100 to 500 nM; in test [2] it was over 2000 nM.
The corresponding values for `Cc1ccc(S(C)(=O)=O)cc1-c1cnc2c(N)nc(C(=O)NC3CCCN(S(C)(=O)=O)C3)cn12` (centres unmarked) [Example 462, 8-Amino-3-(2-methyl-5-(methylsulfonyl)phenyl)-N-(1-(methylsulfonyl)piperidin-3-yl)imidazo[1,2-a]pyrazine-6-carboxamide trifluoroacetate salt] are under 100 nM and 500 to 2000 nM.
The corresponding values for `Cc1ccc(S(=O)(=O)N(C)C2CC(O)C2)cc1-c1cnc2c(N)ncnn12` [Example 159, 3-(4-aminoimidazo[2,1-f][1,2,4]triazin-7-yl)-N-((1R,3R)-3-hydroxycyclobutyl)-N,4-dimethylbenzenesulfonamide] are 100 to 500 nM and over 2000 nM.
The corresponding values for `Cc1cc(-c2cnc3c(N)nccn23)cc(S(=O)(=O)N[C@H]2CC[C@H](O)CC2)c1` [Example 44, 3-(8-Aminoimidazo[1,2-a]pyrazin-3-yl)-N-(trans-4-hydroxycyclohexyl)-5-methylbenzenesulfonamide] are 500 to 2000 nM and over 2000 nM.
As for `Cc1ccc(S(=O)(=O)N2CCC3(CCCO3)C2)cc1-c1cnc2c(N)ncnn12` (centres unmarked) [Example 202, 7-(5-((1-Oxa-7-azaspiro[4.4]nonan-7-yl)sulfonyl)-2-methylphenyl)imidazo[2,1-f][1,2,4]triazin-4-amine], the IC50 in test [1] lay within 100 to 500 nM; in test [2] it was 500 to 2000 nM.
The like results for `Cc1ccc(S(C)(=O)=O)cc1-c1cnc2c(N)nc(-c3ccccc3F)cn12` [Example 40, 6-(2-Fluorophenyl)-3-[2-methyl-5-(methylsulfonyl)phenyl]imidazo[1,2-a]pyrazin-8-amine trifluoroacetate] were, in that order, under 100 nM and 100 to 500 nM.
The corresponding values for `Cc1ccc(S(=O)(=O)N2CCS(=O)(=O)CC2)cc1-c1cnc2c(N)ncnn12` [Example 161, 4-((3-(4-aminoimidazo[2,1-f][1,2,4]triazin-7-yl)-4-methylphenyl)sulfonyl)thiomorpholine 1,1-dioxide] are under 100 nM and 100 to 500 nM.
Take `Cc1ccc(S(=O)(=O)C[C@H]2CC[C@@H](O)CC2)cc1-c1cnc2c(N)ncnn12` [Example 498, cis-4-(((3-(4-Aminoimidazo[2,1-f][1,2,4]triazin-7-yl)-4-methylphenyl)sulfonyl)methyl)cyclohexan-1-ol]: the IC50 is under 100 nM in test [1] and 500 to 2000 nM in test [2].
The corresponding values for `Cc1ccc(S(=O)(=O)N2CC3C(O)C2CN3C2CCC(C#N)C2)cc1-c1cnc2c(N)nc(C(F)(F)F)nn12` (centres unmarked) [Example 351, 3-(5-((3-(4-amino-2-(trifluoromethyl)imidazo[2,1-f][1,2,4]triazin-7-yl)-4-methylphenyl)sulfonyl)-7-hydroxy-2,5-diazabicyclo[2.2.1]heptan-2-yl)cyclopentane-1-carbonitrile] are under 100 nM and 500 to 2000 nM.
The like results for `Cc1ccc(S(=O)(=O)N2CCCC(CNC(=O)CN(C)C)C2)cc1-c1cnc2c(N)nc(C(F)(F)F)cn12` (centres unmarked) [Example 514, N-((1-((3-(8-Amino-6-(trifluoromethyl)imidazo[1,2-a]pyrazin-3-yl)-4-methylphenyl)sulfonyl)piperidin-3-yl)methyl)-2-(dimethylamino)acetamide] were, in that order, 100 to 500 nM and 500 to 2000 nM.
The like results for `Cc1ccc(S(=O)(=O)N2CCC[C@@H]2CO)cc1-c1cnc2c(N)ncnn12` [Example 152] were, in that order, under 100 nM and 500 to 2000 nM.
On to `Cc1ccc(S(C)(=O)=O)cc1-c1cnc2c(N)nc(-c3ccc(CN4CCCC4)cc3F)cn12` [Example 487, 6-(2-Fluoro-4-(pyrrolidin-1-ylmethyl)phenyl)-3-(2-methyl-5-(methylsulfonyl)phenyl)imidazo[1,2-a]pyrazin-8-amine], for which the figures for the IC50 in test [1] and in test [2] were under 100 nM and 100 to 500 nM, respectively.
The corresponding values for `COC(=O)N1CCCC(NC(=O)c2cn3c(-c4cc(S(C)(=O)=O)ccc4C)cnc3c(N)n2)C1` (centres unmarked) [Example 461, Methyl 3-(8-amino-3-(2-methyl-5-(methylsulfonyl)phenyl)imidazo[1,2-a]pyrazine-6-carboxamido)piperidine-1-carboxylate trifluoroacetate salt] are 100 to 500 nM and 500 to 2000 nM.
The corresponding values for `Cc1ccc(-c2cnc3c(N)ncnn23)cc1S(=O)(=O)NC12CCC(C#N)(C1)C2` [Example 369, 5-(4-Aminoimidazo[1,2-f][1,2,4]triazin-7-yl)-N-(4-cyanobicyclo[2.1.1]hexan-1-yl)-2-methylbenzenesulfonamide trifluoroacetate salt] are under 100 nM and 100 to 500 nM.
The like results for `Cc1ccc(S(C)(=O)=O)cc1-c1cnc2c(N)nc(-c3ccc(C(=O)N(C)C)cc3F)cn12` [Example 480, 4-(8-Amino-3-(2-methyl-5-(methylsulfonyl)phenyl)imidazo[1,2-a]pyrazin-6-yl)-3-fluoro-N,N-dimethylbenzamide] were, in that order, under 100 nM and 100 to 500 nM.
As for `Cc1ccc(S(=O)(=O)CC2CC2)cc1-c1cnc2c(N)ncnn12` [Example 499, 7-(5-((Cyclopropylmethyl)sulfonyl)-2-methylphenyl)imidazo[2,1-f][1,2,4]triazin-4-amine], the IC50 in test [1] is 100 to 500 nM; in test [2] it was 500 to 2000 nM.
As for `CO[C@@H]1CN(S(=O)(=O)c2ccc(C)c(-c3cnc4c(N)ncnn34)c2)C[C@H]1F` [Example 151, 7-(5-(((3R,4R)-3-fluoro-4-methoxypyrrolidin-1-yl)sulfonyl)-2-methylphenyl)imidazo[2,1-f][1,2,4]triazin-4-amine], the IC50 in test [1] was under 100 nM; in test [2] it was 100 to 500 nM.
The corresponding values for `Cc1ccc(S(=O)(=O)N2CCCC2c2c(C)noc2C)cc1-c1cnc2c(N)ncnn12` (centres unmarked) [Example 168, 7-(5-((2-(3,5-dimethylisoxazol-4-yl)pyrrolidin-1-yl)sulfonyl)-2-methylphenyl)imidazo[2,1-f][1,2,4]triazin-4-amine] are under 100 nM and 500 to 2000 nM.
Consider `Cc1cn2c(-c3ccc(F)c(S(=O)(=O)NC45CC(C#N)(C4)C5)c3)cnc2c(N)n1` [Example 382, 5-(8-Amino-6-methylimidazo[1,2-a]pyrazin-3-yl)-N-(3-cyanobicyclo[1.1.1]pentan-1-yl)-2-fluorobenzenesulfonamide trifluoroacetate salt], for which the IC50 in test [1] was in the range of 100 to 500 nM; in test [2], 500 to 2000 nM.
The corresponding values for `Cc1ccc(S(=O)(=O)N2CCN3CCCC3C2)cc1-c1cnc2c(N)ncnn12` (centres unmarked) [Example 198, 7-(5-((Hexahydropyrrolo[1,2-a]pyrazin-2(1H)-yl)sulfonyl)-2-methylphenyl)imidazo[2,1-f][1,2,4]triazin-4-amine] are 100 to 500 nM and 500 to 2000 nM.
The like results for `Cc1ccc(S(=O)(=O)N(CCC#N)C2CCCCC2)cc1-c1cnc2c(N)ncnn12` [Example 173, 3-(4-aminoimidazo[2,1-f][1,2,4]triazin-7-yl)-N-(2-cyanoethyl)-N-cyclohexyl-4-methylbenzenesulfonamide] were, in that order, 100 to 500 nM and over 2000 nM.
The corresponding values for `Cc1ccc(S(=O)(=O)[C@@H]2CCC[C@H](O)C2)cc1-c1cnc2c(N)ncnn12` (relative stereo) [Example 501, cis-3-((3-(4-Aminoimidazo[2,1-f][1,2,4]triazin-7-yl)-4-methylphenyl)sulfonyl)cyclohexan-1-ol] are under 100 nM and 500 to 2000 nM.
